Assay results as given in ChEMBL document CHEMBL3638962, “Heteroarylcarboxylic acid ester derivative” (2013).

biological target: Enteropeptidase (Homo sapiens, UniProt P98073); experiment: Inhibition Assay: Inhibition assay using human enteropeptidase.
Sequence (P98073 2-784 limits assumed): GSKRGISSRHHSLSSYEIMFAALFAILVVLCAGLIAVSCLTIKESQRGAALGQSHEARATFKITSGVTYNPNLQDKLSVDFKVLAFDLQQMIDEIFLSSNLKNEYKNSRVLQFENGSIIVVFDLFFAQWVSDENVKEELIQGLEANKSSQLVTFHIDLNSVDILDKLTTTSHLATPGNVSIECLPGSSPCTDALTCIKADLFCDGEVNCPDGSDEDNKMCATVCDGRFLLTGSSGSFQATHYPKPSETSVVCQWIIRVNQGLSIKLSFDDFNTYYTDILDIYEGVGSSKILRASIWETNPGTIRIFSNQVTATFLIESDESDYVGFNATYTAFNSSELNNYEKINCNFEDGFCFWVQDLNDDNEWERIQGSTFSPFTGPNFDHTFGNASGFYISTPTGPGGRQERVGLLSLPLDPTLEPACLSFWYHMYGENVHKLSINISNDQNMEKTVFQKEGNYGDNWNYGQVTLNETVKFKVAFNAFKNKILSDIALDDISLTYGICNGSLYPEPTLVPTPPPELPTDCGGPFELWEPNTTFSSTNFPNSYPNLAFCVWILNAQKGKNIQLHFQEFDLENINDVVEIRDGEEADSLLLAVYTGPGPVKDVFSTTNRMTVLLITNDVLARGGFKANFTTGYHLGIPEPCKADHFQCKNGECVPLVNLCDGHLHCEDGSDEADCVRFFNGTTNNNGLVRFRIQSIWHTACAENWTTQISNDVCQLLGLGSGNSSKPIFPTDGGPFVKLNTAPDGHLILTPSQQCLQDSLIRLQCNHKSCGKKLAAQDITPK
Sequence (P98073 785-1019 limits assumed): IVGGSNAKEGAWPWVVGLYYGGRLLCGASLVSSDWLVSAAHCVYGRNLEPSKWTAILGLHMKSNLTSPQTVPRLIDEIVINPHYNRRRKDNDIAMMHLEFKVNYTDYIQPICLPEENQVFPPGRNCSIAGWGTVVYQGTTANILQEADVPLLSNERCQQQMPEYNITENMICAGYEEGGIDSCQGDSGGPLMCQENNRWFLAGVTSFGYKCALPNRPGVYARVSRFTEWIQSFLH

Compound | Ki
N=C(N)c1ccc(OC(=O)c2ccc(CCC(=O)N(CCC(=O)O)CC(=O)O)o2)cc1 | 0.6 nM
CC(Cc1ccc(C(=O)Oc2ccc(C(=N)N)cc2)o1)C(=O)O[C@H](CC(=O)O)C(=O)O (stereo partly drawn) | 0.68 nM
CC(Cc1ncc(C(=O)Oc2ccc(C(=N)N)cc2F)s1)C(=O)N[C@@H](CC(=O)O)C(=O)O (stereo partly drawn) | 3.7 nM
